{
  "source": "PubChem BioAssay (NCI)",
  "note": "Values joined by “and” are separate entries in the source; they are usually repeats but may differ in a detail not shown here. Equal entries are not always repeated.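 Tested at 5 concentrations; 48 h exposure; 96-well plates; endpoints linearly interpolated, else capped at highest concentration. Here, GI50 denotes the concentration required for 50% inhibition of growth. At the TGI there is no net growth.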",
  "data": [
    {"tested_on": "MDA-MB-468 breast", "assay": "inhibition of tumour cell growth, NCI panel, 48 h", "values": [
      {"smiles": "CO[C@@H](C(=O)N1Cc2[nH]nc(NC(=O)c3ccc(N4CCN(C)CC4)cc3)c2C1)c1ccccc1", "GI50": "585 nM and 130 nM", "TGI": "5.28 µM and > 10 µM"},
      {"smiles": "C=C(C)[C@@H]1CC[C@]2(COC(C)=O)CC[C@]3(C)[C@H](CC[C@@H]4[C@@]5(C)CCCN(C(C)=O)C(C)(C)[C@@H]5CC[C@]43C)[C@@H]12", "GI50": "1530 nM", "TGI": "3 µM"},
      {"smiles": "COc1ccc(-c2cnoc2-c2ccc(OC)cc2O)cc1", "GI50": "844 nM", "TGI": "5.46 µM"},
      {"smiles": "COc1cc(-c2cc(/C=C3\\C(=O)Nc4ccc(Cl)cc43)[nH]n2)cc(OC)c1OC", "GI50": "5230 nM", "TGI": "88.8 µM"},
      {"smiles": "CCCCC/C=C/C(=O)CCc1ccc(O)c(OC)c1", "GI50": "3180 nM", "TGI": "13 µM"},
      {"smiles": "CCC(CC)COC(=O)[C@H](C)N[P@](=O)(OC[C@H]1O[C@@](C#N)(c2ccc3c(N)ncnn23)[C@H](O)[C@@H]1O)Oc1ccccc1", "GI50": "491 nM", "TGI": "3.83 µM"},
      {"smiles": "C/C=C(/C(=C/C)c1ccc(O)cc1)c1ccc(O)cc1", "GI50": "2000 nM", "TGI": "6.85 µM"},
      {"smiles": "CCN(CC)CCCN1C(=O)c2c(c(C)c3c(oc4ccc(O)cc43)c2C)C1=O", "GI50": "1650 nM", "TGI": "3.72 µM"},
      {"smiles": "CC(C)(C)CC(C)(C)c1ccc(OCCSC(=N)N)cc1", "GI50": "358 nM", "TGI": "1.9 µM"},
      {"smiles": "COC(=O)c1cc2cc(-c3ccc(OC)cc3)cnc2[nH]1", "GI50": "744 nM"},
      {"smiles": "N=C1N(c2ccccc2)C(=S)C(=Nc2ccccc2)N1c1ccccc1", "GI50": "7140 nM", "TGI": "20.8 µM"},
      {"smiles": "NS(=O)(=O)N(c1cc(C(F)(F)F)cc(C(F)(F)F)c1)C1CCN(Cc2ccc(C(F)(F)F)cc2)CC1", "GI50": "5650 nM", "TGI": "12 µM"},
      {"smiles": "Cc1nn(-c2ccccc2)c(-n2ccnc2)c1/C=N/Nc1nc(-c2ccc(Cl)c(Cl)c2)cs1", "GI50": "1470 nM", "TGI": "7.92 µM"},
      {"smiles": "COc1cc(-c2cncn2-c2ccc(-c3nc4ccc(F)cc4s3)cc2)ccc1F", "GI50": "11100 nM", "TGI": "> 100 µM"},
      {"smiles": "C=C1C(=O)O[C@H]2[C@H]1CC/C(COC(=O)NCc1[nH]nc3ccccc13)=C\\CC[C@@]1(C)O[C@@H]21", "GI50": "736 nM", "TGI": "2.72 µM"},
      {"smiles": "Cc1ccc(NS(=O)(=O)c2ccc(-c3cnc(C4CC4)o3)cc2)cc1C", "GI50": "231 nM", "TGI": "2.33 µM"},
      {"smiles": "CN1CCN(Cc2ccc(NC(=O)c3nc4ccc5[nH]ncc5c4c4c3CCCC4)cc2C(F)(F)F)CC1", "GI50": "797 nM", "TGI": "1.6 µM"},
      {"smiles": "CSc1nn2c(-c3ccc4ccccc4c3)ccnc2c1C#N", "GI50": "2870 nM", "TGI": "18.3 µM"},
      {"smiles": "CCOC(=O)c1ccc(NC(=O)Nc2nccs2)cc1", "GI50": "46.7 nM", "TGI": "> 100 µM"},
      {"smiles": "CCC(/C=C(C)/C=C/C(=O)c1c(O)c(-c2ccc(O)cc2)c[nH]c1=O)CO", "note": "(stereo not given)", "GI50": "5240 nM", "TGI": "24.4 µM"},
      {"smiles": "C=CCOC1=CC(=O)c2ccccc2C1=O", "GI50": "2080 nM", "TGI": "5.14 µM"},
      {"smiles": "Oc1ccc(/C=C/c2ccc(O)cc2)cc1", "GI50": "10700 nM", "TGI": "> 100 µM"},
      {"smiles": "COc1ccc(-c2cc3c(OC)c(OC)c(OC)cc3oc2=O)cc1", "GI50": "2210 nM", "TGI": "8.46 µM"},
      {"smiles": "COc1ccc(CN2CCc3c(Sc4ccccc4)nc(N)nc3C2=O)c(OC)c1", "GI50": "3510 nM", "TGI": "14 µM"},
      {"smiles": "Nc1[nH]c(=O)nc2c1cnn2Cc1ccccc1", "GI50": "> 100000 nM", "TGI": "> 100 µM"},
      {"smiles": "COc1cccc(-n2ncc3c(N/N=C/c4ccc(F)cc4)ncnc32)c1", "GI50": "> 25000 nM", "TGI": "> 25 µM"},
      {"smiles": "Nc1nc2cc(-c3ccc4ncc(C(=O)N5CCOCC5)n4c3)ccc2o1", "GI50": "3820 nM", "TGI": "45.5 µM"},
      {"smiles": "O=C1c2ccc3c4c(ccc(c24)C(=O)N1CCCNCc1ccccc1F)C(=O)N(CCCNCc1ccccc1F)C3=O", "GI50": "143 nM", "TGI": "0.29 µM"},
      {"smiles": "CN1CCN(Cc2ccc(NC(=O)c3cncc(C#Cc4cnc5ccc(OCC6(C)COC6)nn45)c3)cc2C(F)(F)F)CC1", "GI50": "120 nM", "TGI": "0.36 µM"},
      {"smiles": "CC(C)(Oc1ccc(Cl)cc1)C(=O)NC1C2CC3CC1CC(NS(C)(=O)=O)(C3)C2", "note": "(stereo not given)", "GI50": "> 100000 nM", "TGI": "> 100 µM"},
      {"smiles": "CCN(CCCNC(=O)Cc1cc(=O)oc2cc(N(C)C)ccc12)CCNc1ccnc2cc(Cl)ccc12", "GI50": "1960 nM", "TGI": "6 µM"},
      {"smiles": "COC(=O)c1c2c(c(C)[n+]([O-])c1C)C(=O)C(NCc1cccc(Cl)c1)=CC2=O", "GI50": "896 nM", "TGI": "2.5 µM"},
      {"smiles": "CCCCN(CCCC)CC(O)c1ccc(OCc2ccccc2)c2ccccc12", "note": "(stereo not given)", "GI50": "2170 nM", "TGI": "6 µM"},
      {"smiles": "Cn1cc(C2=C(c3cn(C)c4cc(C(=O)O)ccc34)C(=O)NC2=O)c2ccccc21", "GI50": "> 25000 nM", "TGI": "> 25 µM"},
      {"smiles": "Cc1ccc2c(NCCCN(C)C)c3c(C)nn(C)c3nc2c1", "GI50": "2710 nM", "TGI": "10.2 µM"},
      {"smiles": "O=NNc1ccc(S(=O)c2ccccc2)cn1", "note": "(stereo not given)", "GI50": "76200 nM", "TGI": "> 100 µM"},
      {"smiles": "C=C1C(=O)O[C@H]2[C@H]1CC/C(COC(=O)NCc1ccc(Cn3c(=O)sn(CCI)c3=O)cc1)=C\\CC[C@@]1(C)O[C@@H]21", "GI50": "1250 nM", "TGI": "2.81 µM"},
      {"smiles": "CN1CCN(Cc2ccc(NC(=O)c3cnc(F)c(C#Cc4cnc(N)c5ncccc45)c3)cc2C(F)(F)F)CC1", "GI50": "386 nM", "TGI": "7.68 µM"},
      {"smiles": "O=C(Nc1cccc(-n2cc(-c3ccncc3)c(-c3ccc(Cl)c(O)c3)n2)c1)Nc1cccc(C(F)(F)F)c1", "GI50": "980 nM", "TGI": "7.83 µM"},
      {"smiles": "NS(=O)(=O)c1ccc(Nc2ncc(-c3ccccc3)o2)cc1", "GI50": "> 25000 nM", "TGI": "> 25 µM"},
      {"smiles": "CCSc1ccc2c(c1)N(CCCN1CCN(C)CC1)c1ccccc1S2", "GI50": "1730 nM", "TGI": "3.38 µM"},
      {"smiles": "COC(=O)[C@@H]1CCCN1C(=O)[C@@H]1CCCN1C(=O)[C@H](Cc1ccccc1)NC(=S)Nc1cc(C(F)(F)F)cc(C(F)(F)F)c1", "GI50": "2480 nM", "TGI": "9.62 µM"},
      {"smiles": "CCCCCCCCCCCCCCCCNC(=O)OC(C)C", "GI50": "4010 nM", "TGI": "10.1 µM"},
      {"smiles": "CN(C)c1ccc(O)c2c1CC1CC3C(N(C)C)C(=O)C(C(N)=O)=C(O)C3(O)C(=O)C1=C2O", "note": "(stereo not given)", "GI50": "11000 nM", "TGI": "57.7 µM"},
      {"smiles": "Cc1nnc([S-])o1.[Au+].c1ccc([PH+](c2ccccc2)c2ccccc2)cc1", "GI50": "1380 nM", "TGI": "2.8 µM"},
      {"smiles": "CNC1CCc2c(sc(NC(=O)c3ccc(C(C)(C)C)cc3)c2C(N)=O)C1", "note": "(stereo not given)", "GI50": "1840 nM", "TGI": "3.58 µM"},
      {"smiles": "CN(CCO)C1CCN(c2ccc(Nc3ncc4c5ccnc(F)c5n(C5CCCC5)c4n3)nc2)CC1", "GI50": "15400 nM", "TGI": "33.2 µM"},
      {"smiles": "O=C(C(Br)C(Br)c1ccccc1)C(Br)C(Br)c1ccccc1", "note": "(stereo not given)", "GI50": "1040 nM", "TGI": "3.09 µM"},
      {"smiles": "COc1ccc(/C=C2\\CS(=O)(=O)C/C(=C\\c3ccc(OC)cc3)C2=O)cc1", "GI50": "1590 nM", "TGI": "5.18 µM"},
      {"smiles": "O=[N+]([O-])c1cc([N+](=O)[O-])c(N2CCCC2)cc1NN=C(c1ccc(O)cc1)c1ccc(O)cc1", "GI50": "2180 nM", "TGI": "10.1 µM"},
      {"smiles": "O=c1ccc(N=Nc2ccccc2)ccc1Cl", "GI50": "2460 nM", "TGI": "10.8 µM"},
      {"smiles": "CCCCSSC(=S)N(CC)CC", "GI50": "65100 nM", "TGI": "> 100 µM"},
      {"smiles": "CCNC(=O)N1CCc2cc(OC)c(OCCc3ccc(OC)nc3)cc2C1c1ccc(C)cc1C", "note": "(stereo not given)", "GI50": "1590 nM", "TGI": "7.58 µM"}
    ]}
  ]
}
